Reference: ChEMBL document CHEMBL1137106, “Piperazinebenzylamines as potent and selective antagonists of the human melanocortin-4 receptor” (Bioorg Med Chem Lett, 2004)

Assays:
Cell line [1] = assay: Percentage of alpha-MSH stimulated cAMP level at 10 uM; format: functional, Homo sapiens
Melanocortin receptor 4 [2] = target: T1, Melanocortin receptor 4 (Homo sapiens, UniProt P32245); assay: Binding affinity towards human melanocortin 4 receptor expressed in HEK 293 cells was determined by using [125I]NDP-MSH as radioligand; format: cell-based, HEK293
T1 sequence (P32245 whole entry): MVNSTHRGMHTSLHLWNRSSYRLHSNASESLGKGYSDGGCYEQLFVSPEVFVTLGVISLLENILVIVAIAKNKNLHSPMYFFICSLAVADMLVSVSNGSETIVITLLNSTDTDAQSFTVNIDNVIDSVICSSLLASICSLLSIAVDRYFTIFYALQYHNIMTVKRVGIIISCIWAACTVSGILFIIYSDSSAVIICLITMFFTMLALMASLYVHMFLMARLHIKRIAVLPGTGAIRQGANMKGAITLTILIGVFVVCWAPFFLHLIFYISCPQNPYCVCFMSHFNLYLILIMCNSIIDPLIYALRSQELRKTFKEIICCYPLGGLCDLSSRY

Cell line [3] = assay: Effective concentration required for alpha-MSH stimulated cAMP production at 10 uM; format: functional, cell-based; conditions: Homo sapiens
[4] = target: T2, Melanocyte-stimulating hormone receptor (Homo sapiens, UniProt Q01726); assay: Percent inhibition of [125I]NDP-MSH binding to human melanocortin 1 receptor expressed in HEK 293 cells at 10 uM; format: cell-based; conditions: HEK293
Target sequence in this assay (Q01726 whole entry, looked up): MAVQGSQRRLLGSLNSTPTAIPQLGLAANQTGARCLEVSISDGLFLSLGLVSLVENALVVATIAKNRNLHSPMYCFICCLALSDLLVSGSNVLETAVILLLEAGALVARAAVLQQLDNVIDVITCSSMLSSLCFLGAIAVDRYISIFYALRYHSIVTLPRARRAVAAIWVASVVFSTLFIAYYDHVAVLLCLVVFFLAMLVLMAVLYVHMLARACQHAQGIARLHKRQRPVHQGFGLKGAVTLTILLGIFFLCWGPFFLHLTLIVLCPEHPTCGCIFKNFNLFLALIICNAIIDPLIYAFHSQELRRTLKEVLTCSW

Melanocortin receptor 5 = Melanocortin receptor 5 (Homo sapiens, UniProt P33032); assay: Binding affinity towards human melanocortin 5 receptor expressed in HEK 293 cells was determined by using [125I]NDP-MSH as radioligand; format: cell-based, HEK293
Melanocortin receptor 5, sequence (P33032 whole entry): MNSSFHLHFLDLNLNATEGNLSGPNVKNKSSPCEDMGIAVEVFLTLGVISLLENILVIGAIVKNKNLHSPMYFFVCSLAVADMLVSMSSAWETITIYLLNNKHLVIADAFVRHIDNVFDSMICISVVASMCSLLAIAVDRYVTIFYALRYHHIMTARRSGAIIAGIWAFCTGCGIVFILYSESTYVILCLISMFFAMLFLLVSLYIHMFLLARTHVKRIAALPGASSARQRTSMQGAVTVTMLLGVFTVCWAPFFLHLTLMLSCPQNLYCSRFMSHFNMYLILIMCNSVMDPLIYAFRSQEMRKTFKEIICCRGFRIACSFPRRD

Melanocortin receptor 3 = Melanocortin receptor 3 (Homo sapiens, UniProt P41968); assay: Binding affinity towards human melanocortin 3 receptor expressed in HEK 293 cells was determined by using [125I]NDP-MSH as radioligand; format: cell-based, HEK293
Melanocortin receptor 3, sequence (P41968 whole entry): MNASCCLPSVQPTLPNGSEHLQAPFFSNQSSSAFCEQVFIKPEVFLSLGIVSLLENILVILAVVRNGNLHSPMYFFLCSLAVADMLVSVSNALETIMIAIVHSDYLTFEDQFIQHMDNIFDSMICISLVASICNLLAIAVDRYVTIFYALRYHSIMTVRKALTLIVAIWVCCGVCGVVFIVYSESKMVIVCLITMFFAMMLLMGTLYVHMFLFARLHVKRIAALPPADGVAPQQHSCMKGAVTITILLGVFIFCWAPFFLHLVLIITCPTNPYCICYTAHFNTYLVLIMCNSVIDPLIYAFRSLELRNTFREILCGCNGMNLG

[5] = target: T2, Melanocyte-stimulating hormone receptor; assay: Binding affinity towards human melanocortin 1 receptor expressed in HEK 293 cells was determined by using [125I]NDP-MSH as radioligand; format: cell-based, HEK293
Target sequence in this assay (Q01726 whole entry): as the sequence (Q01726 whole entry, looked up) above

Cell line [6] = assay: Concentration required for inhibition of alpha-MSH stimulated cAMP production by 50%; format: functional, cell-based; conditions: Homo sapiens
Melanocortin receptor 4 [7] = target: T1, Melanocortin receptor 4; assay: Tested for inhibition of binding to MC4 receptor
Cell line [8] = assay: Effective concentration required for alpha-MSH stimulated cAMP production; format: functional, cell-based; conditions: Homo sapiens
[9] = Tested for inhibition of NDP-MSH binding; format: functional

| SMILES | Ki (Melanocortin receptor 4 [2]) [nM] | EC50 (Cell line [3]) [nM] | IA (Cell line [1]) [%] | also measured |
| --- | --- | --- | --- | --- |
| O=C(N[C@H](Cc1ccc(Cl)cc1)C(=O)N1CCN(c2ccccc2CNCCc2cccs2)CC1)C1CCN1 (some centres not stated) | 48 | 1630 | 47 |  |
| NCC(=O)N[C@H](Cc1ccc(Cl)cc1)C(=O)N1CCN(c2ccccc2CNCCc2cccs2)CC1 | 44 | 580 | 77 | inhibition [4]: 50%; Ki (Melanocortin receptor 5): 990 nM; Ki (Melanocortin receptor 3): 1900 nM |
| O=C(CCc1ccc(Cl)cc1)N1CCN(c2ccccc2CNCCc2cccs2)CC1 | 1000 |  | <45 |  |
| O=C([C@@H](Cc1ccc(Cl)cc1)NS(=O)(=O)CC(F)(F)F)N1CCN(c2ccccc2CNCCc2cccs2)CC1 | 410 |  | <45 |  |
| NCCC(=O)N[C@H](Cc1ccc(Cl)cc1)C(=O)N1CCN(c2ccccc2CNCCc2cccs2)CC1 | 21 |  | 14 | Ki [5]: 1300 nM; IC50 (Cell line [6]): 90 nM; Ki (Melanocortin receptor 5): 1000 nM; Ki (Melanocortin receptor 3): 1000 nM |
| CC(N[C@@H]1CCCC[C@H]1N)c1ccccc1N1CCN(C(=O)[C@@H](Cc2ccc(Cl)cc2)NC(=O)CCN)CC1 (some centres not stated) | 150 | 590 | 64 |  |
| COc1ccc2ccccc2c1CCCCN1CCN(CC(c2ccc(F)cc2)N2CCN(C)CC2)CC1 (configuration not stated) |  |  |  | Ki (Melanocortin receptor 4 [7]): 7.9 nM |
| O=C(N[C@H](Cc1ccc(Cl)cc1)C(=O)N1CCN(c2ccccc2CNCCc2cccs2)CC1)C1CCCCN1 (some centres not stated) | 75 | 1100 | 60 |  |
| O=C(N[C@H](Cc1ccc(Cl)cc1)C(=O)N1CCN(c2ccccc2CNCCc2cccs2)CC1)c1cccnc1 | 41 |  | 5 | inhibition [4]: 23%; IC50 (Cell line [6]): 880 nM; Ki (Melanocortin receptor 5): 730 nM; Ki (Melanocortin receptor 3): 1800 nM |
| O=C(CC1CCCN1)N[C@H](Cc1ccc(Cl)cc1)C(=O)N1CCN(c2ccccc2CNCCc2cccs2)CC1 (some centres not stated) | 40 | 1800 | 57 |  |
| O=C(N[C@H](Cc1ccc(Cl)cc1)C(=O)N1CCN(c2ccccc2CNCCc2cccs2)CC1)C1CCCN1 (some centres not stated) | 50 | 1900 | 56 |  |
| CC(NCc1ccco1)c1ccccc1N1CCN(C(=O)[C@@H](Cc2ccc(Cl)cc2)NC(=O)CCN)CC1 (some centres not stated) | 140 | 1870 | 99 |  |
| CN(CCc1cccs1)Cc1ccccc1N1CCN(C(=O)[C@@H](Cc2ccc(Cl)cc2)NC(=O)CCN)CC1 | 220 |  | 32 |  |
| COc1ccc(Br)cc1CCc1c(F)cccc1-c1ncc[nH]1 |  |  |  | Ki (Melanocortin receptor 4 [7]): 160 nM |
| CC(C)CC(N)C(=O)N[C@H](Cc1ccc(Cl)cc1)C(=O)N1CCN(c2ccccc2CNCCc2cccs2)CC1 (some centres not stated) | 30 | 2600 | 45 |  |
| N[C@H](Cc1ccc(Cl)cc1)C(=O)N1CCN(c2ccccc2CNCCc2cccs2)CC1 | 600 | 8700 | 85 |  |

| SMILES | Ki (Melanocortin receptor 4 [2]) [nM] | EC50 (Cell line [3]) [nM] | IA (Cell line [1]) [%] | also measured |
| --- | --- | --- | --- | --- |
| O=C(N[C@H](Cc1ccc(Cl)cc1)C(=O)N1CCN(c2ccccc2CNCCc2cccs2)CC1)C1CCNCC1 | 26 |  | 39 |  |
| CC(C)(N)C(=O)N[C@H](Cc1ccc(Cl)cc1)C(=O)N1CCN(c2ccccc2CNCCc2cccs2)CC1 | 66 | 1500 | 80 |  |
| O=C(N[C@H](Cc1ccc(Cl)cc1)C(=O)N1CCN(c2ccccc2Cn2cncn2)CC1)[C@H]1Cc2ccccc2CN1 |  |  |  | EC50 (Cell line [8]): 80 nM |
| COc1ccc(Br)cc1CCc1c(Cl)cccc1-c1nc(C)c[nH]1 |  |  |  | Ki (Melanocortin receptor 4 [7]): 180 nM |
| COCC(=O)N[C@H](Cc1ccc(Cl)cc1)C(=O)N1CCN(c2ccccc2CNCCc2cccs2)CC1 | 70 |  | 16 |  |
| NCCCC(=O)N[C@H](Cc1ccc(Cl)cc1)C(=O)N1CCN(c2ccccc2CNCCc2cccs2)CC1 | 14 |  | 15 | Ki [5]: 1200 nM; IC50 (Cell line [6]): 66 nM; Ki (Melanocortin receptor 5): 1000 nM; Ki (Melanocortin receptor 3): 1400 nM |
| NC(Cc1ccccc1Cl)C(=O)N1CCN(c2ccccc2CNCCc2cccs2)CC1 (configuration not stated) | 1000 |  | <45 |  |
| NCCC(=O)OC(Cc1ccc(Cl)cc1)C(=O)N1CCN(c2ccccc2CNCCc2cccs2)CC1 (configuration not stated) | 290 |  | <45 |  |
| CC(CN1CCN(CC(c2ccc(F)cc2)N2CCN(C)CC2)CC1)C(=O)c1ccccc1 (configuration not stated) |  |  |  | IC50 [9]: 220 nM |
| CN(C)CC(=O)N[C@H](Cc1ccc(Cl)cc1)C(=O)N1CCN(c2ccccc2CNCCc2cccs2)CC1 | 38 | 1400 | 45 |  |
| CCC(NCCc1cccs1)c1ccccc1N1CCN(C(=O)[C@@H](Cc2ccc(Cl)cc2)NC(=O)CCN)CC1 (some centres not stated) | 140 |  | 29 |  |
| NC(C(=O)N1CCN(c2ccccc2CNCCc2cccs2)CC1)c1ccc(Cl)cc1 (configuration not stated) | 1800 |  | <45 |  |
| CC(NCCc1cccs1)c1ccccc1N1CCN(C(=O)[C@@H](Cc2ccc(Cl)cc2)NC(=O)CCN)CC1 (some centres not stated) | 110 |  | 32 |  |
| CC(Nc1ccccc1N)c1ccccc1N1CCN(C(=O)[C@@H](Cc2ccc(Cl)cc2)NC(=O)CCN)CC1 (some centres not stated) | 470 | 2720 | 56 |  |
| CC(c1ccccc1N1CCN(C(=O)[C@@H](Cc2ccc(Cl)cc2)NC(=O)CCN)CC1)N1CCN(C)CC1 (some centres not stated) | 86 | 471 | 59 |  |
| CC(NC1CCCNC1)c1ccccc1N1CCN(C(=O)[C@@H](Cc2ccc(Cl)cc2)NC(=O)[C@H]2Cc3ccccc3CN2)CC1 (some centres not stated) |  |  |  | EC50 (Cell line [8]): 3.8 nM |

Second part, led by results:

| Ki (Melanocortin receptor 4 [2]) [nM] | EC50 (Cell line [3]) [nM] | SMILES | IA (Cell line [1]) [%] | also measured |
| --- | --- | --- | --- | --- |
| 3900 |  | NC(Cc1ccc(Cl)cc1)C(=O)N1CCN(c2ccccc2CNCCc2cccs2)CC1 (configuration not stated) | <45 |  |
| 3800 |  | CC(C)(C(=O)N1CCN(c2ccccc2CNCCc2cccs2)CC1)c1ccc(Cl)cc1 | <45 |  |
| 430 |  | CC(c1ccccc1N1CCN(C(=O)[C@@H](Cc2ccc(Cl)cc2)NC(=O)CCN)CC1)N1CCN(c2ccccc2)CC1 (some centres not stated) | 35 |  |
| 290 |  | CC(NCCNc1cccc2ccccc12)c1ccccc1N1CCN(C(=O)[C@@H](Cc2ccc(Cl)cc2)NC(=O)CCN)CC1 (some centres not stated) | 22 |  |
| 5400 |  | NC(CC(=O)N1CCN(c2ccccc2CNCCc2cccs2)CC1)c1ccc(Cl)cc1 (configuration not stated) | <45 |  |
| > 10000 |  | O=C(C(O)c1ccc(Cl)cc1)N1CCN(c2ccccc2CNCCc2cccs2)CC1 (configuration not stated) | <45 |  |
| 6400 |  | NCC(Cc1ccc(Cl)cc1)C(=O)N1CCN(c2ccccc2CNCCc2cccs2)CC1 (configuration not stated) | <45 |  |
| 120 | 364 | CC(NCc1ccccc1N)c1ccccc1N1CCN(C(=O)[C@@H](Cc2ccc(Cl)cc2)NC(=O)CCN)CC1 (some centres not stated) | 100 |  |
| 210 |  | CC(NCCN1CCCCC1)c1ccccc1N1CCN(C(=O)[C@@H](Cc2ccc(Cl)cc2)NC(=O)CCN)CC1 (some centres not stated) | 41 |  |
| > 10000 |  | O=C(Cc1ccc(Cl)cc1)N1CCN(c2ccccc2CNCCc2cccs2)CC1 | <45 |  |
| 15 |  | O=C(N[C@H](Cc1ccc(Cl)cc1)C(=O)N1CCN(c2ccccc2CNCCc2cccs2)CC1)C1CCCNC1 (some centres not stated) | 12 | Ki [5]: 2300 nM; IC50 (Cell line [6]): 36 nM; Ki (Melanocortin receptor 5): 720 nM; Ki (Melanocortin receptor 3): 1400 nM |
|  | 320 | O=C(N[C@H](Cc1ccc(Cl)cc1)C(=O)N1CCN(c2ccccc2CNCCc2cccs2)CC1)[C@H]1Cc2ccccc2CN1 | 100 |  |
| 46 |  | NC1(C(=O)N[C@H](Cc2ccc(Cl)cc2)C(=O)N2CCN(c3ccccc3CNCCc3cccs3)CC2)CC1 | 12 |  |
